{
  "source": "patent US5565486A",
  "about": "“Sesquiterpenes, their preparation and their use as inhibitors acting on the gaba-benzodiazepine receptor” (Xenova Limited, priority 1992, dated 1996)",
  "key": {"benzodiazepine receptor": {"target": "benzodiazepine receptor", "assay": "Benzodiazepine-receptor binding assay ([3H]-flunitrazepam displacement, ox cerebral cortex synaptosomal preparation)", "settings": "for pIC50: [3H]-flunitrazepam 1 nM, pH 7.4", "procedure": "The present compounds have shown activity in a benzodiazepine-receptor binding assay which uses a tritiated ligand specific for the receptor present on the purified GABA-Bz-Cl^- ionophore receptor complex. The details of the assay are set out in Example 5 which follows.\nThe receptor extract was a crude synaptosomal preparation isolated from ox cerebral cortex by the method of Lang et al (FEBS Lett., 104 149-153, 1979). Receptor binding was determined using a modification described by O'Beirne and Williams (Eur. J. Biochem, 175 413-421, 1988) of the method of Braestrup and Squires (PNAS 74 3805-3809, 1977). The receptor preparation was incubated in 50 mM Tris/Cl, pH 7.4, with compound A and [^3 H]-flunitrazepam (agonist) at a final concentration of 1 nM. Bound radioligand was harvested on to glass fibre filters and measured by liquid scintillation counting. Non-specific binding was determined by displacement of ligand with Diazepam (1 μM).\nBinding data were fitted to one or two site models by weighted non-linear regression analysis using the computer programs `LIGAND` (Munson and Rodbard: Analytic Biochem 107 220-239, 1980) and `EBDA` (McPherson-Computer Prog. in Biomed. 7 107-114, 1983).\nThe method described above was repeated using each of compounds B and C described in Examples 3 and 4 respectively, and also using compound D, which is the sodium salt of compound A.\nIC50 values were also determined for compounds A', E and F described in Examples 5 to 7 respectively."}, "[1]": {"assay": "Solubility in organic solvents", "format": "physicochemical", "settings": "solvents in which soluble"}},
  "note": "pIC50: −log10 of the molar value.",
  "data": [
    {"smiles": "C/C1=C\\CC(C)(C)/C=C/C[C@@]2(C)OC3=C(O)C(=O)[C@H]4CO[C@H]([C@@H]34)[C@@H]2CC1", "note": "[Compound D]", "values": [
      {"measurement": "pIC50", "setting": "benzodiazepine receptor", "result": 8.00},
      {"measurement": "% Inhibition", "setting": "benzodiazepine receptor; concentration 5 nM", "result": 45, "unit": "%"},
      {"measurement": "% Inhibition", "setting": "benzodiazepine receptor; concentration 10 nM", "result": 45, "unit": "%"},
      {"measurement": "% Inhibition", "setting": "benzodiazepine receptor; concentration 50 nM", "result": 70, "unit": "%"},
      {"measurement": "% Inhibition", "setting": "benzodiazepine receptor; concentration 100 nM", "result": 65, "unit": "%"},
      {"measurement": "% Inhibition", "setting": "benzodiazepine receptor; concentration 500 nM", "result": 81, "unit": "%"},
      {"measurement": "% Inhibition", "setting": "benzodiazepine receptor; concentration 1 μM", "result": 86, "unit": "%"},
      {"measurement": "% Inhibition", "setting": "benzodiazepine receptor; concentration 5 μM", "result": 98, "unit": "%"},
      {"measurement": "% Inhibition", "setting": "benzodiazepine receptor; concentration 10 μM", "result": 100, "unit": "%"},
      {"measurement": "% Inhibition", "setting": "benzodiazepine receptor; concentration 50 μM", "result": 103, "unit": "%"},
      {"measurement": "% Inhibition", "setting": "benzodiazepine receptor; concentration 100 μM", "result": 92, "unit": "%"}
    ]},
    {"smiles": "C/C1=C\\CC(C)(C)/C=C/C[C@@]2(C)Oc3c(O)c(O)cc4c3[C@@H](OC4)[C@@H]2CC1", "note": "[Compound E]", "values": [
      {"measurement": "pIC50", "setting": "benzodiazepine receptor", "result": 6.30},
      {"measurement": "% Inhibition", "setting": "benzodiazepine receptor; concentration 4.8 × 10^-5 M", "result": 101, "unit": "%"},
      {"measurement": "% Inhibition", "setting": "benzodiazepine receptor; concentration 4.8 × 10^-6 M", "result": 88, "unit": "%"},
      {"measurement": "% Inhibition", "setting": "benzodiazepine receptor; concentration 4.8 × 10^-7 M", "result": 52, "unit": "%"},
      {"measurement": "% Inhibition", "setting": "benzodiazepine receptor; concentration 4.8 × 10^-8 M", "result": 37, "unit": "%"},
      {"measurement": "% Inhibition", "setting": "benzodiazepine receptor; concentration 4.8 × 10^-9 M", "result": 22, "unit": "%"},
      {"measurement": "% Inhibition", "setting": "benzodiazepine receptor; concentration 9.5 × 10^-5 M", "result": 104, "unit": "%"},
      {"measurement": "% Inhibition", "setting": "benzodiazepine receptor; concentration 9.5 × 10^-6 M", "result": 93, "unit": "%"},
      {"measurement": "% Inhibition", "setting": "benzodiazepine receptor; concentration 9.5 × 10^-7 M", "result": 65, "unit": "%"},
      {"measurement": "% Inhibition", "setting": "benzodiazepine receptor; concentration 9.5 × 10^-8 M", "result": 42, "unit": "%"},
      {"measurement": "% Inhibition", "setting": "benzodiazepine receptor; concentration 9.5 × 10^-9 M", "result": 27, "unit": "%"},
      {"measurement": "Solubility", "setting": "[1]", "result": "methanol, ethyl acetate"}
    ]},
    {"smiles": "C/C1=C\\CC(C)(C)/C=C/C[C@@]2(C)OC3=C(O)C(=O)[C@H]4CO[C@H]([C@@H]34)[C@@H]2CC1", "note": "[Compound A]", "values": [
      {"measurement": "pIC50", "setting": "benzodiazepine receptor", "result": 7.40},
      {"measurement": "% Inhibition", "setting": "benzodiazepine receptor; concentration 3 nM", "result": 11, "unit": "%"},
      {"measurement": "% Inhibition", "setting": "benzodiazepine receptor; concentration 9 nM", "result": 35, "unit": "%"},
      {"measurement": "% Inhibition", "setting": "benzodiazepine receptor; concentration 28 nM", "result": 44, "unit": "%"},
      {"measurement": "% Inhibition", "setting": "benzodiazepine receptor; concentration 93 nM", "result": 65, "unit": "%"},
      {"measurement": "% Inhibition", "setting": "benzodiazepine receptor; concentration 280 nM", "result": 80, "unit": "%"},
      {"measurement": "% Inhibition", "setting": "benzodiazepine receptor; concentration 930 nM", "result": 92, "unit": "%"},
      {"measurement": "% Inhibition", "setting": "benzodiazepine receptor; concentration 3 μM", "result": 93, "unit": "%"},
      {"measurement": "% Inhibition", "setting": "benzodiazepine receptor; concentration 9 μM", "result": 99, "unit": "%"},
      {"measurement": "% Inhibition", "setting": "benzodiazepine receptor; concentration 28 μM", "result": 106, "unit": "%"},
      {"measurement": "% Inhibition", "setting": "benzodiazepine receptor; concentration 93 μM", "result": 107, "unit": "%"},
      {"measurement": "Solubility", "setting": "[1]", "result": "Methanol, acetone, ethyl acetate"}
    ]},
    {"smiles": "C/C1=C\\CC(C)(C)/C=C/C[C@@]2(C)Oc3c4c(c(O)c(O)c(=O)c3O)CO[C@H]4[C@@H]2CC1", "note": "[Compound B]", "values": [
      {"measurement": "pIC50", "setting": "benzodiazepine receptor", "result": 5.30},
      {"measurement": "% Inhibition", "setting": "benzodiazepine receptor; concentration 18 nM", "result": 21, "unit": "%"},
      {"measurement": "% Inhibition", "setting": "benzodiazepine receptor; concentration 53 nM", "result": 21, "unit": "%"},
      {"measurement": "% Inhibition", "setting": "benzodiazepine receptor; concentration 177 nM", "result": 36, "unit": "%"},
      {"measurement": "% Inhibition", "setting": "benzodiazepine receptor; concentration 530 nM", "result": 42, "unit": "%"},
      {"measurement": "% Inhibition", "setting": "benzodiazepine receptor; concentration 2 μM", "result": 53, "unit": "%"},
      {"measurement": "% Inhibition", "setting": "benzodiazepine receptor; concentration 5 μM", "result": 69, "unit": "%"},
      {"measurement": "% Inhibition", "setting": "benzodiazepine receptor; concentration 18 μM", "result": 82, "unit": "%"},
      {"measurement": "% Inhibition", "setting": "benzodiazepine receptor; concentration 53 μM", "result": 92, "unit": "%"},
      {"measurement": "% Inhibition", "setting": "benzodiazepine receptor; concentration 177 μM", "result": 78, "unit": "%"},
      {"measurement": "Solubility", "setting": "[1]", "result": "Methanol, ethyl acetate, chloroform, acetone"}
    ]},
    {"smiles": "C/C1=C\\CC(C)(C)/C=C/C[C@@]2(C)Oc3c4c(cc(O)c(=O)c3O)CO[C@H]4[C@@H]2CC1", "note": "[Compound C]", "values": [
      {"measurement": "pIC50", "setting": "benzodiazepine receptor", "result": 4.70},
      {"measurement": "% Inhibition", "setting": "benzodiazepine receptor; concentration 80 nM", "result": 9, "unit": "%"},
      {"measurement": "% Inhibition", "setting": "benzodiazepine receptor; concentration 240 nM", "result": -3, "unit": "%"},
      {"measurement": "% Inhibition", "setting": "benzodiazepine receptor; concentration 800 nM", "result": 9, "unit": "%"},
      {"measurement": "% Inhibition", "setting": "benzodiazepine receptor; concentration 2 μM", "result": 12, "unit": "%"},
      {"measurement": "% Inhibition", "setting": "benzodiazepine receptor; concentration 8 μM", "result": 35, "unit": "%"},
      {"measurement": "% Inhibition", "setting": "benzodiazepine receptor; concentration 24 μM", "result": 54, "unit": "%"},
      {"measurement": "% Inhibition", "setting": "benzodiazepine receptor; concentration 80 μM", "result": 77, "unit": "%"},
      {"measurement": "% Inhibition", "setting": "benzodiazepine receptor; concentration 242 μM", "result": 88, "unit": "%"},
      {"measurement": "Solubility", "setting": "[1]", "result": "Methanol, acetone, ethyl acetate"}
    ]},
    {"smiles": "C/C1=C\\CC(C)(C)/C=C/C[C@@]2(C)OC3=C4C(=CC(=O)C3=O)CO[C@H]4[C@@H]2CC1", "note": "[Compound F]", "values": [
      {"measurement": "pIC50", "setting": "benzodiazepine receptor", "result": 5.52},
      {"measurement": "% Inhibition", "setting": "benzodiazepine receptor; concentration 2.7 × 10^-4 M", "result": 94, "unit": "%"},
      {"measurement": "% Inhibition", "setting": "benzodiazepine receptor; concentration 2.7 × 10^-5 M", "result": 77, "unit": "%"},
      {"measurement": "% Inhibition", "setting": "benzodiazepine receptor; concentration 2.7 × 10^-6 M", "result": 48, "unit": "%"},
      {"measurement": "% Inhibition", "setting": "benzodiazepine receptor; concentration 2.7 × 10^-7 M", "result": 33, "unit": "%"},
      {"measurement": "% Inhibition", "setting": "benzodiazepine receptor; concentration 2.7 × 10^-8 M", "result": 24, "unit": "%"},
      {"measurement": "% Inhibition", "setting": "benzodiazepine receptor; concentration 9.0 × 10^-5 M", "result": 89, "unit": "%"},
      {"measurement": "% Inhibition", "setting": "benzodiazepine receptor; concentration 9.0 × 10^-6 M", "result": 65, "unit": "%"},
      {"measurement": "% Inhibition", "setting": "benzodiazepine receptor; concentration 9.0 × 10^-7 M", "result": 41, "unit": "%"},
      {"measurement": "% Inhibition", "setting": "benzodiazepine receptor; concentration 9.0 × 10^-8 M", "result": 27, "unit": "%"},
      {"measurement": "% Inhibition", "setting": "benzodiazepine receptor; concentration 9.0 × 10^-9 M", "result": 15, "unit": "%"},
      {"measurement": "Solubility", "setting": "[1]", "result": "methanol"}
    ]}
  ]
}
